Reference: patent US4034111A, “Compositions of and new uses for N-acylanilinobutyric acids” (Byk Gulden Lomberg Chemische Fabrik GmbH, priority 1974, dated 1977)
Read-outs that look alike come from different tables or passages of the source.

Legend:
[1] = test system: Pancreas secretion; experiment: Pancreas secretion (rat), i.d. administration; assay type: in vivo; conditions: intraduodenal, as sodium salt; for ED (50% increase): Rattus norvegicus, read-out: Increase in pancreas secretion by 50 % maximum (dose); for minimal effective dose: read-out: Increase in pancreas secretion: significantly effective of [ ]
Protocol: (§1) 1. Pancreas secretion (rat and cat) was examined along the lines of the method described by C. J. Dockray [J. Physiol., 225, 679, (1972)] for the rat and of that described by R. M. Case et al [J. Physiol., 223, 669, (1972)] for the cat.
(§2) The pancreas secretion and the bile of narcotized rats (female, 250 to 300 g, stomachs not empty; narcosis: 5 ml/kg of a 25 % urethane solution= 1.25 g/kg i.m.) and cats (both sexes, stomachs empty, 3 to 4 kg; narcosis: laughing gas and 60 mg/kg i.p. chloralose and 120 mg/kg i.p. urethane; permanent infusion of 0.4 to 2 E/kg/hour secretine= 1 to 6 ml/animal/hour,pylorus ligature) were separately transferred to the outside. After an initial period of about 2 hours compounds to be examined were administered intravenously to some and intraduodenally to other animals (volume of injection rat/cat 1 ml/kg). The volume and, respectively, the protein content (amylase, lipase, trypsine) of the fraction for 30 minutes and 15 minutes, respectively, were determined by conventional methods (Boehringer Test Combination 15899).

[2] = test system: stomach ulcers; experiment: Anti-ulcerogenity: suppression of acetylsalicylic acid-induced stomach ulcers in rats; assay type: in vivo, rat (Sprague-Dawley, female); conditions: 24 h, rat, oral, 30 min before 200 mg/kg acetylsalicylic acid, as sodium salt; for ED100: read-out: Suppression of the formation of stomach ulcers by 100 % (dose); for ED50: read-out: Suppression of the formation of stomach ulcers by 50% (dose)
Protocol: 2. Anti-ulcerogenity was determined according to the method described in German Offenlegungsschrift DT-OS 2,118,200. Female Sprague-Dawley rats weighing about 200 g were kept on empty stomach for 24 hours. Then the compounds to be tested were administered orally in the form of their sodium salts in aqueous solution. After 30 minutes 200 mg/kg acetylsalicyclic acid (in 10 ml/kg of an 1% tylose suspension) were administered to cause stomach ulcers. Control groups received the corresponding amount of water instead of the sodium salt solutions. The ulcus rate was determined microscopically 24 hours after the administration of acetylsalicyclic acid.

[3] = test system: serum enzyme increase (GOT/GPT) after galactosamine; experiment: Anti-hepatotoxic action: liver damage due to galactosamine, serum enzymes GOT/GPT; assay type: in vivo, rat (Sprague-Dawley, male); conditions: rat, oral, as sodium salt, serum 24 hours after 200 mg/kg d-galactosamine hydrochloride i.p.; read-out: Anti-hepatotoxic action: inhibition of serum enzyme increase by 25 % (GOT/GPT), damage due to galactosamine (dose)
Protocol: (§3) 5. The determination of the anti-hepatotoxic and hepatotropic effect, respectively, was carried out by damaging the liver with allyl alcohol or galactosamine.
(b) Damaging, due to galactosamine (galactosamine hepatitis) was carried out in accordance with the method described in Arzneimittelforschung 23 Nr. 1a, 159 (1973): Male Sprague-Dawley rats (220 to 300 g) received 200 mg/kg d-galactosamine hydrochloride (Merck, Darmstadt, article no. 4085) intraperitoneally (injection volume 2 ml/kg) 1 hour after oral administration of the compounds to be tested. 24 hours after the damage due to galactosamine a blood sample was taken from the vena orbitalis with slight ether narcosis. The serum enzymes were determined as described under a.

[4] = test system: circulation of blood in internal organs (liver, pancreas); experiment: Blood circulation through internal organs (liver, pancreas); assay type: in vivo; conditions: Felis catus, iv; cat, i.v. administration, as sodium salt; read-out: Increase in circulation of blood in internal organs (liver, pancreas), effective of
Protocol: 4. The blood circulation through the liver was determined by the arterial blood supply (Art. hepatica) along the lines of the method described by Scholtholt (Habilitationsschrift, faculty of medicine, University of Dusseldorf (1969) "Experimental studies with regard to the blood circulation through the liver").

[5] = test system: heart force of the heart; experiment: Heart force (left ventricle pressure course) in narcotized cats; assay type: in vivo; conditions: Felis catus, iv; cat, i.v. administration, as sodium salt; read-out: Increase in heart force of the heart, effective of
Protocol: 3. The influence of the acylated anilinocarboxylic acids on heart force was determined along the lines of the method of W. Kroneberg et al. [Arzneimittelforschung, 22, 2 (1972)] by determination of the pressure course (isometrically) and pressure increase in the left heart ventricle upon intraveneous administration of the substance to narcotized cats.

[6] = test system: serum enzyme increase (GOT/GPT) after allyl alcohol; experiment: Anti-hepatotoxic action: liver damage due to allyl alcohol, serum enzymes GOT/GPT; assay type: in vivo, rat (Sprague-Dawley, female); conditions: rat, oral, as sodium salt, serum 18 hours after allyl alcohol; read-out: Anti-hepatotoxic action: inhibition of serum enzyme increase by 25 % (GOT/GPT), damage due to allyl alcohol (dose)
Protocol: as §3
(a) Damaging due to allyl alcohol was carried out in accordance with the method of Renker et al. [Arzneimittelforschung, 22, 1009 (1972)] and of H. Rauen and Schriewer [Arzneimittelforschung, 21, 1194 (1971)]: female Sprague-Dawley-rats (250 to 300 g) received 3 ml/kg of 1.25 % allyl alcohol solution orally […] the compounds to be tested and the solvent (control) had also been administered orally. 18 hours after the damage due to allyl alcohol a blood sample was taken from the tail (0.5 to 0.7 ml) with slight ether narcosis. The serum enzymes GOT (glutamate oxalacetate transaminase) and GPT (glutamate pyruvate transminase) were determined with the help of the Boehringer Test Combination (No. 15955/56)-- micromethod.

[7] = test system: Pancreas secretion; experiment: Pancreas secretion (cat), pancreas liquid and protein (enzyme); assay type: in vivo; conditions: Felis catus, as sodium salt
Protocol: as §1, §2

Row | SMILES | ED (50% increase) [1] | minimal effective dose [1] | ED100 [2] | ED25 [3] | minimal effective dose [4] | minimal effective dose [5] | ED25 [6] | ED50 [2] | ED (100% increase) ([7]; intraduodenal, i.d. administration, read-out: Increase in pancreas secretion by 100 % maximum: pancreas liquid (dose)) | ED (100% increase) ([7]; intraduodenal, i.d. administration, read-out: Increase in pancreas secretion by 100 % maximum: protein (enzyme) (dose)) | ED (100% increase) ([7]; iv, i.v. administration, read-out: Increase in pancreas secretion by 100 % maximum: protein (enzyme) (dose))
1 | Cc1cccc(C)c1N(CCCC(=O)O)C(=O)c1ccccc1Cl [(8), N-(o-chlorobenzoyl)-γ-(2,6-dimethylanilino)butyric acid] | ~1 mg/kg | 0.01 mg/kg | ~30 mg/kg | ~20 mg/kg | 1 mg/kg | 1 mg/kg | – | – | – | – | –
2 | CCOc1ccc(N(CCCC(=O)O)C(=O)c2ccc(Cl)cc2)cc1 [(4), N-(p-chlorobenzoyl)-γ-(p-phenetidino)butyric acid] | 0.1 to 0.5 mg/kg | 0.05 mg/kg | ~15 mg/kg | ~10 mg/kg | 1 to 5 mg/kg | 1 mg/kg | ~10 mg/kg | – | – | – | –
3 | O=C(O)CCCN(C(=O)c1ccc(Cl)cc1)c1ccc(O)cc1 [(11), N-(p-chlorobenzoyl)-γ-(p-hydroxyanilino)butyric acid] | ~0.7 mg/kg | 0.5 mg/kg | – | – | 1 to 5 mg/kg | ~1 mg/kg | ~10 mg/kg | – | – | – | –
4 | COc1ccc(N(CCCC(=O)O)C(=O)c2ccc(Cl)cc2)cc1 [(3), N-(p-chlorobenzoyl)-γ-(p-anisidino)butyric acid] | 1 to 5 mg/kg | 0.05 mg/kg | ~10 mg/kg | ~20 mg/kg | 1 to 5 mg/kg | 1 mg/kg | 5 to 10 mg/kg | 1 to 5 mg/kg | ~10 mg/kg | ~1 mg/kg | < 10 mg/kg
5 | COc1ccc(N(CCCC(=O)O)C(=O)c2ccccc2)cc1 [(2), N-benzoyl-γ-(p-anisidino)butyric acid] | ~0.2 mg/kg | 0.05 mg/kg | 1.5 mg/kg | ~50 mg/kg | – | – | 5 to 10 mg/kg | – | – | – | –
6 | Cc1cccc(C)c1N(CCCC(=O)O)C(=O)c1ccc(Cl)cc1 [(9), N-(p-chlorobenzoyl)-γ-(2,6-dimethylanilino)butyric acid] | 0.2 to 0.5 mg/kg | 0.01 mg/kg | 1 to 5 mg/kg | 10 to 20 mg/kg | 1 mg/kg | 1 to 5 mg/kg | ~10 mg/kg | 0.5 to 1 mg/kg | – | – | –
7 | COc1ccc(N(CCCC(=O)O)C(=O)c2ccc(Cl)cc2)cc1OC [(7), N-(p-chlorobenzoyl)-γ-(3,4-dimethoxyanilino)butyric acid] | ~1 mg/kg | ~0.1 mg/kg | ~5 mg/kg | ~20 mg/kg | 1 mg/kg | 1 to 5 mg/kg | 50 mg/kg | – | – | – | –
8 | CC(=O)N(CCCC(=O)O)c1cccc(Cl)c1 [(12), N-acetyl-γ-(m-chloroanilino)butyric acid] | ~1 mg/kg | 0.1 mg/kg | – | – | – | 2.5 mg/kg | – | – | – | – | –
